TGI data for three compounds are collected here from PubChem BioAssay (NCI).

Some test systems named below: HCC-2998 colon; SN12C renal; EKVX NSCLC; NCI-H460 lung; KM12 colon; BT-549 breast; LOX IMVI melanoma; HL-60(TB) leukemia; SK-MEL-5 melanoma; SNB-75 CNS; HOP-62 NSCLC; SK-MEL-28 melanoma; SR leukemia; CCRF-CEM leukemia; HT29 colon; RPMI-8226 leukemia; MCF7 breast; 786-0 renal; UACC-257 melanoma; MDA-MB-435.
Common to all, as to assay: growth of human tumour cells (NCI), 48 h

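Values below derive from 48-hour exposures of cells grown in 96-well plates, with endpoints linearly interpolated between the two concentrations bracketing the appropriate inhibition level. Definition used: TGI = concentration required for complete inhibition of growth.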

For `CCCN(CCCCC(NC(C)=O)C(=O)NCc1ccccc1)C(=O)N(CCCl)N=O` (stereo not given), the TGI in the test on HCC-2998 colon was greater than 100 µM; with SN12C renal it was greater than 100 µM; in the test with EKVX NSCLC, greater than 100 µM; with NCI-H460 lung, greater than 56.2 µM; in the test with KM12 colon it was greater than 100 µM; in the test with BT-549 breast, greater than 100 µM. Besides, the TGI was greater than 100 µM with LOX IMVI melanoma; greater than 86 µM with HL-60(TB) leukemia; greater than 100 µM with SK-MEL-5 melanoma; 90.8 µM in the test on SNB-75 CNS; 78.3 µM in the test on HOP-62 NSCLC; greater than 100 µM in the test on SK-MEL-28 melanoma. Also, the TGI in the test with SR leukemia was greater than 100 µM; with CCRF-CEM leukemia, greater than 100 µM; in the test on HT29 colon it was greater than 100 µM; in the test on RPMI-8226 leukemia it was greater than 100 µM; with MCF7 breast, greater than 100 µM; in the test on 786-0 renal, greater than 89.4 µM. Further, the TGI in the test on UACC-257 melanoma and in the test with MDA-MB-435 was greater than 100 µM throughout.
`Cc1ccc(S(=O)(=O)OC2C3OC(C)(C)OC3OC2C(c2cc(O)c3c(c2O)C(=O)c2ccccc2C3=O)c2cc(O)c3c(c2O)C(=O)c2ccccc2C3=O)cc1` (stereo not given): the TGI in the test with HCC-2998 colon, in the test on SN12C renal, with EKVX NSCLC, in the test with NCI-H460 lung, in the test with KM12 colon and in the test with BT-549 breast was greater than 10 µM each time. Moreover, the TGI in the test with LOX IMVI melanoma, with HL-60(TB) leukemia, with SK-MEL-5 melanoma, in the test on SNB-75 CNS, with HOP-62 NSCLC and with SK-MEL-28 melanoma was greater than 10 µM throughout. The TGI in the test with SR leukemia, in the test on CCRF-CEM leukemia, in the test on HT29 colon, with RPMI-8226 leukemia, with MCF7 breast and in the test on 786-0 renal was greater than 10 µM throughout. In addition, the TGI in the test with UACC-257 melanoma and in the test with MDA-MB-435 was greater than 10 µM throughout.
For the compound `Nc1nc(Cl)cc(NCC2(CO)COC2)n1`, the TGI with HCC-2998 colon, in the test with SN12C renal, in the test on EKVX NSCLC, with NCI-H460 lung, in the test on KM12 colon and with BT-549 breast was greater than 100 µM in each case. The TGI in the test on LOX IMVI melanoma, with HL-60(TB) leukemia, with SK-MEL-5 melanoma, in the test on SNB-75 CNS, in the test on HOP-62 NSCLC and in the test with SK-MEL-28 melanoma was greater than 100 µM in each case. For the same compound, the TGI in the test with SR leukemia, in the test with CCRF-CEM leukemia, with HT29 colon, in the test with RPMI-8226 leukemia, with MCF7 breast and in the test on 786-0 renal was greater than 100 µM throughout. The TGI in the test with UACC-257 melanoma and in the test on MDA-MB-435 was greater than 100 µM each time.
